Reference: patent publication US7262009B2, “Method of cell detection” (Matforsk; Norwegian Food Research Institute, priority 2000, dated 2007)

Tests used:
E. coil 0157 strain 765 = assay: Viable/dead study with EMA, TaqMan PCR; format: cell-based, E. coli; conditions: for PCR cycle difference: 100 ng/μl EMA for 5 min
Experimental: (§1) Amplification reactions (50 μl) contained a DNA sample (1-5 μl), 1× TaqMan™ Buffer A, […], 200 μM dATP, dCTP, dGTP, and 400 μM dUTP, 0.1 μM E. coli specific probe, 0.3 μM E. coli specific primers (each), and 2.5 U AmpliTaq GoldT™ DNA polymerase. PCR samples and controls were prepared in triplicates. Reaction tubes were MicroAmp® Optical tubes and tube caps were MicroAmp® Optical caps. All consumables were supplied by PE Biosystems, Foster City, Calif., USA. Before amplification, the PCR mixture was heated to 95° C. for 10 mins to denature the template DNA. Amplification profile: 40 cycles of 95° C. for 20 seconds and 60° C. for one minute. Reactions were performed in the ABI prism® 7700 Sequence Detection System (PE Biosysrems, Foster City, Calif., USA).
(§2) The amplification was plotted as ΔRn, which was the normalized reporter signal (reporter signal minus background), against number of cycles. One then chose a threshold signal, which intersected the amplification curves in the linear region of the semi-log plot. This gave threshold cycles (CT), which is detined as the PCR cycle where an increase in fluorescence first occurred, for each amplification plot. Different amplification could then be compared by their respective threshold cycles.
(§3) The light activation was done on ice with a OSRAM SLG1000 lamp (OSRAM, Norway) with a 650 W halogen light bulb at a distance of 10 cm.
The strain was killed with 70% isopropyl ethanol for. 30 min. 10 ng/μl and 100 ng/μl EMA were added both to the viable control, and to the killed bacteria. The bacteria were exposed to EMA for 30, 1 min, 5 min, 10 min and 15 min. Exposure to 100 ng/μl for 5 min give the best discrimination with approximately 1 cycle difference for the viable bacteria, and 10 cycles (½^10) for the killed bacteria. […] For treated, i.e. dead bacteria, CT was at 20 PCR cycles for bacteria not exposed to EMA but at 30 for bacteria exposed to EMA.

16S rDNA gene (pure DNA) = assay: PCR inhibitory effect of photoactivated and unactivated EMA on pure DNA (16S rDNA PCR, agarose gel); format: biochemical
Experimental: The PCR inhibitory effects of both photoactivated, and unactivated EMA were investigated for pure DNA. PCR amplifications were carried out on dilution series of 1000, 100 and 10 μg/ml EMA. The 16S rDNA gene was amplified through the application of the forward primer 5′[…]3′ and the reverse primer 5′[…]3′. These primer sites are universally conserved for eubacterial 16S rDNA.
The PCR amplifications were done using the GeneAmp 9700 PCR amplification system (PE biosystems, Norwalk, Conn., USA). The 50 μl PCR reactions contained 10 pmol of each primer, 200 μM dNTP, 10 mM Tris-HCl (pH 8.8), 1.5 mM MgCl2, 50 mM KCl, 0.1% Triton® x-100, 1 U DynaZyme™ Thermostable DNA Polymerase (Finnzymes OY, Espoo, Finland) and 2 ng template. The cycling parameters were: 94° C. for 30 s, 55° C. for 30 s and 72° C. for 1 minute.
The cycling step was repeated 25 times. The samples were heated to 94° C. for 5 minutes prior to the amplification, and an extension step at 72° C. for 7 minutes was included after completion of the amplification reactions.
For each dilution series PCR was employed both on samples where EMA had been covalently photoactivated to DNA through illumination with a Luxor 18W type FL-185 lamp (Luxor ASA, Oslo, Norway) at 5 cm for 15 minutes, and on samples where EMA had been added to the DNA in the dark. […] For 100 and 10 μg/ml, the photoactivated EMA inhibited PCR, while PCR for the unactivated EMA was not inhibited (FIG. 1). 10 μg/ml amplification products were separated on a 1% agarose gel for 45 minutes at 100 volts. The conclusion from these experiments is that EMA covalently bound to DNA is sufficient to inhibit PCR amplification, and that EMA by itself is only inhibitory to PCR at high concentrations.

DNA = assay: Time to light inactivation of EMA, real time quantitative PCR; format: biochemical; conditions: EMA exposed to light for 30 s or more prior to binding to DNA; 2, 20, 100 ng/μl
Experimental: as §1, §2
The light activation was done on ice with a OSRAM SLG1000 lamp (OSRAM, Norway) with a 650 W halogen light bulb at a distance of 10 cm. […]

purified DNA = assay: Time series for covalent binding of EMA to DNA, real time quantitative PCR; format: biochemical
Experimental: as §1, §2, §3
EMA in concentrations 2 ng/μl, 20 ng/μl and 100 ng/μl were added to purified DNA, and exposed to light for 5 s, 15 s, 45 s, 1 min and 3 min. The amount of DNA that could serve as a template was then tested by real time quantitative PCR.

E. coli = assay: EMA as living/dead stain: PCR signal from living and killed E. coli; format: cell-based; conditions: for difference in PCR signal intensities between the treated sample and the control: light 10 minutes
Experimental: Panel B: The signal intensities were determined as pixel values in an 8 bit grayscale by using the program Gel-Pro ANALYZER software (Medica Cybernetics, Silver Spring. Md.). The relative signal intensities for the EMA treated samples are given as a percentage of the untreated samples.
E. coli was killed by ethanol, heat, and formaldehyde to test the effect of EMA as a living/dead stain. In these experiments aliquots of approximately 10^8 cells of E. coli were pelleted in a microcentrifuge at 8000 rpm for 5 minutes, the supernant removed, and the cells resuspended in 50 μl of the respective liquids; water 96% ethanol, and 2% formaldehyde. The ethanol and formaldehyde treated samples were incubated at room temperature, while the water samples were incubated both at room temperature and at 95° C. All samples were incubated at the respective temperatures for 5 minutes.
The bacteria were subsequently pelleted by centrifugation, the supernatant removed, and the cells resuspended in 50 μl water. […]
All the samples were exposed to light for 10 minutes. Subsequently, the samples were resuspended in 500 μl […] (GTC) and 1% sarkosyl containing 1U Dynabeads DNA DIRECT beads (Dynal AS, Oslo, Norway). Incubation was continued at room temperature for an additional 5 minutes. 1 ml 96% ethanol was added, and after 5 minutes the samples were washed twice with 1 ml 70% ethanol. The bead and DNA complex was then resuspended in 50 μl water, and finally heated to 65° C. for 10 minutes to remove residual ethanol. 2% of the purified DNA was used in each amplification reaction as described above.

[1] = tested on: Campylobacter jejuni type strain DSMZ 4688; assay: Effect of externally added DNase on DNA in heat-treated cells, 5'-nuclease PCR; format: cell-based; conditions: for reduction of the signal compared to control without DNase: 10 U DNase
Experimental: The effect on the DNA stability at room temperature after heat-treatment of the cultures, and after addition of DNase was investigated. 1.7±0.8×10^7 cells (with DNase) and 5.0±0.6×10^7 cells (without DNase) of C. jejuni type strain were used in these experiments. […] One set of tubes were then incubated further at room temperature, and samples for PCR analysis removed at intervals of 5, 15, and 30 min, 1 h, 6 and 24 hrs, and 5 days. 10 U RQl DNase (Promega, Madison, Wis., USA) and 1× DNase buffer were added to another set of tubes before the incubation at room temperature. Aliquots were analyzed after 5, 15 and 30 min, and after 1 hr, 6 and 24 hours. For the PCR analysis, DNA was purified from 10 μl aliquots from the respective time-points, and the subsequent 5′-nuclease PCR assay performed as described below.
Dynabeads® DNA Direct I (Dynal AS, Oslo, Norway), 200 μl, were then added to the suspension of bacteria, and the bacteria-bead suspension was incubated at 65° C. for 20 minutes, followed by incubation at room temperature for another 2 minutes. DNA bound to magnetic beads was then drawn to the wall of the microcentrifuge tube by a magnet (MPC®-E, Dynal AS, Oslo, Norway) for 2 minutes. The supernatant containing salts, detergent and cell debris was carefully removed without disrupting the Dynabeads/DNA complex. The beads were washed twice with a washing buffer (buffer 2 from the kit). Finally, the DNA was removed from the beads by resuspending in 40 μl 10 mM Tris HCl, pH 8.0 (buffer 3 from the kit), and incubation at 65° C. for 5 minutes. The beads, now released from the DNA, were collected with the magnet, and the DNA-containing supernatant was transferred to a fresh tube and used directly in the PCR.
(§4) Amplification reactions (50 μl) contained a DNA sample (1 μl), 1× TaqMan™ Buffer A, 5 mM MgCl2, 200 μM dATP, dCTP, dGTP, and 400 μM dUTF, 0.02 μM. C. Jejuni specific probe, 0.3 μM C. jejuni specific primers—see Table 1 below (each), 1 U AmpErase™ Uracil N-glycosylase (UNG), and 2.5 U AmpliTaq Gold™ DNA polymerase.
(§5) Before amplification, the PCR mixture was heated to 50° C. in 5 min to let the UNG destroy possibly contaminating PCR products, and 95° C. for 10 min to denature the template DNA. Amplification, profile: 40 cycles of 95° C. for 20 seconds and 60° C. for one minute. Reactions were performed in the ABI Prism® 7700 Sequence Detection System (PE Biosystems, Foster City, Calif., USA). Reaction conditions were programmed and data were analyzed on a power Macintosh 4400/20 (Apple Computer, Santa Clara, Calif., USA) linked directly to the ABE prism® 7700 Sequence Detection system using the SDS 1.6.3 application software (PE Biosystems, Foster City, Calif., USA) as described by the manufacturer.
The amplification was plotted as ΔRn, which was the normalized reporter signal (reporter signal minus background), against number of cycles. […] This gave threshold cycles (CT), which is defined as the PCR cycle where an increase in fluorescence first occurred, for each amplification plot. […] The CT-values were plotted against log input DNA/cells and gave standard curves for quantification of unknown samples and possibilities to estimate the amplification efficiency in the reaction (Heid, C. A., J. Stevens, K. J. Livak and P. M. Williams, 1996, Real time quantitative PCR, Genome Research 6: 986-994; PE Biosystems, 1997, User bulletin 2; ABI PRISM 7700 Sequence Detection System). […]

[2] = tested on: purified DNA from C. jejuni; assay: DNase treatment of purified DNA, 5'-nuclease PCR; format: biochemical; conditions: after 30 minutes of DNase treatment
Experimental: as §4, §5
The amplification was plotted as ΔRn, which was the normalized reporter signal (reporter signal minus background), against number of cycles. […] This gave threshold cycles (CT), which is defined as the PCR cycle where an increase in fluorescence first occurred, for each amplification plot. […]

For `CC[n+]1c(-c2ccccc2)c2cc(N=[N+]=[N-])ccc2c2ccc(N)cc21.[Br-]` [EMA, ethidium bromide monoazide], the PCR cycle difference (E. coil 0157 strain 765; killed bacteria (70% isopropyl ethanol 30 min)) was about 10 cycles, the CT (E. coil 0157 strain 765; treated, i.e. dead bacteria exposed to EMA) was 30 PCR cycles and the CT (E. coil 0157 strain 765; untreated, i.e. viable bacteria exposed to EMA) was 21 cycles. For the same compound, the PCR cycle difference (E. coil 0157 strain 765; viable bacteria) was “approximately 1 cycle”, the PCR inhibition (16S rDNA gene (pure DNA); non activated EMA (added in the dark), 1000 μg/ml) was “inhibited the PCR reaction” and the PCR inhibition (16S rDNA gene (pure DNA); photoactivated EMA, 10 μg/ml) was “inhibited PCR”. The PCR inhibition (16S rDNA gene (pure DNA); photoactivated EMA, 100 μg/ml) was “inhibited PCR”, the PCR inhibition (16S rDNA gene (pure DNA); photoactivated EMA, 1000 μg/ml) was “inhibited the PCR reaction” and the PCR inhibition (16S rDNA gene (pure DNA); unactivated EMA, 10 μg/ml) was “not inhibited”. The PCR inhibition (16S rDNA gene (pure DNA); unactivated EMA, 100 μg/ml) was “not inhibited”, the “difference between the control and the test sample” value (DNA) was “no significant difference” and the “difference in the PCR cycles (ΔCT) until a detectable signal” value (purified DNA; EMA 2, 20 and 100 ng/μl (all concentrations tested), after light exposure) was “approximately 12”. For the same compound, the “time at which the binding reaction was complete” value (purified DNA; light exposure, EMA 2-100 ng/μl) was “about 30 s”, the “fraction of DNA that could serve as a PCR template after covalent binding of EMA” value (purified DNA; ½^12, from ΔCT) was 0,000244 and the “amplification efficiency for the living bacteria” value (E. coli; EMA 100 μg/ml) was “reduced the amplification efficiency”. The “discrimination between the viable and dead bacteria” value (E. coli; EMA increased to 100 μg/ml) was “did not result in a better discrimination”, the “difference in PCR signal intensities between the treated sample and the control” value (E. coli; bacteria killed by heat (95° C.), EMA 10 μg/ml) was “about 100%” and the “difference in PCR signal intensities between the treated sample and the control” value (E. coli; bacteria killed with ethanol, EMA 10 μg/ml) was “about 100%”. For the same compound, the PCR inhibition (E. coli; ethanol killed bacteria (double-stranded DNA)) was 100%, the “difference in PCR signal intensities between the treated sample and the control” value (E. coli; formaldehyde treated sample, EMA 10 μg/ml) was 85% and the PCR inhibition (E. coli; heat killed bacteria (single-stranded DNA)) was 100%. The “difference in PCR signal intensities between the controls and the EMA sample” value (E. coli; living bacteria, EMA 10 μg/ml) was “no differences”.

In the case of DNase, the “reduction of the signal compared to control without DNase” value (from here on “reduction … to control without DNase”) ([1]; cells heated at 72° C. for 5 min) is reported as 1 log, the “reduction … to control without DNase” value ([1]; cells heated at 100° C. for 5 min) is reported as 1 log and the “reduction … to control without DNase” value ([1]; cells heated at 121° C. for 15 min) is reported as 1 log. For the same compound, the “difference between the DNase treated samples and the control” value ([1]; cells incubated at 20° C.) was “little difference”, the “difference between the DNase treated samples and the control” value ([1]; cells incubated at 55° C.) was “little difference” and the “input material (DNA) left” value [2] was “about 0.01%”.
